The values that follow come from patent US11041000B2, “Peptide inhibitors of interleukin-23 receptor and their use to treat inflammatory diseases” (priority 2019, dated 2021).

The nature of data set [1]: Stability in simulated gastric fluid (SGF). To be noted: simulated gastric fluid with porcine pepsin, pH 2, 37° C., 20 μM peptide. The class given is in vitro ADME.
Procedure: SGF was prepared by adding 20 mg NaCl, 32 mg porcine pepsin (MP Biochemicals, catalog 02102599), and 70 μl HCl to 10 ml water (final pH=2). Aliquots of SGF (0.5 ml each) were pre-warmed at 37° C. To start the reaction, 1 μl of peptide stock solution (10 mM in DMSO) was added to 0.5 ml SGF and thoroughly mixed such that the final peptide concentration was 20 μM. The reactions were incubated at 37° C. with gentle shaking. At each time point (0, 15, 30, 60 min) 50 μl aliquots were removed and added to 200 ul acetonitrile containing 0.1% formic acid to quench the reaction. Samples are stored at 4° C. until the end of the experiment and centrifuged at 10,000 rpm for 5 minutes. Aliquots of the supernatant were removed, diluted 1:1 into distilled water containing internal standard, and analyzed by LCMS/MS. Percent remaining at each timepoint was calculated based on the peak area response ratio of test to compound to internal standard. Time 0 was set to 100%, and all later timepoints were calculated relative to time 0. Half-lives were calculated by fitting to a first-order exponential decay equation using GraphPad.
The target of data set [2] is IL-23R-expressing DB cells (Homo sapiens, UniProt Q5VWK5). Put plainly: DB cells IL23R pSTAT3 cell assay (pStat3HTRF). The class given is cell-based. To be noted: DB cells stimulated with IL-23 0.5 nM, 30 minutes, phospho-STAT3 in cell lysates; read-out: pStat3 HTRF. An excerpt:
Human ELISA indicates the IL23-IL23R competitive binding assay described below, Rat ELISA indicates the rat IL-23R competitive binding ELISA assay described below, and pStat3HTRF indicates the DB cells IL-23R pSTAT3 cell assay described below. The peptides depicted in Table E1 are cyclized via a disulfide bridge formed between two Pen residues in these peptides. The peptides depicted in Table E2 are cyclized via a thioether bond between the indicated amino acid residues. Table E2 provides an illustrative structure depicting thioether cyclization, which is indicated in the table by the term “cyclo,” with the cyclic region bracketed immediately following the term “cyclo.” For certain peptides, the residue Abu is present where indicated, whereas in other embodiments, e.g., those related to the non-cyclized form, the Abu may be referred to as a hSer(Cl) or homoSer residue. The petpides depicted in Table E3 are cyclized via a disulfide bridge formed between two Pen residues or a thioether bond between Abu and Cys.
IL-23 plays a central role in supporting and maintaining Th17 differentiation in vivo. This process is thought to be mediated primarily through the Signal Transducer and Activator of Transcription 3 (STAT3), with phosphorylation of STAT3 (to yield pSTAT3) leading to upregulation of RORC and pro-inflammatory IL-17. This cell assay examines the levels of pSTAT3 in IL-23R-expressing DB cells when stimulated with IL-23 in the presence of test compounds. Serial dilutions of test peptides and IL-23 (Humanzyme #HZ-1261) at a final concentration of 0.5 nM, were added to each well in a 96 well tissue culture plate (Corning #CLS3894). DB cells (ATCC #CRL-2289), cultured in RPMI-1640 medium (Thermo Scientific #11875093) supplemented with 10% FBS, were added at 5×10E5 cells/well and incubated for 30 minutes at 37° C. in a 5% CO2 humidified incubator. Changes in phospho-STAT3 levels in the cell lysates were detected using the Cisbio HTRF pSTAT3 (Tyr705) Cellular Assay Kit (Cisbio #62AT3PEH), according to manufacturer's Two Plate Assay protocol.
(In general: TR-FRET usually uses a lanthanide donor and a delayed reading to cut background.)

Data set [3] in a line: Stability in cynomolgus monkey fecal homogenate. The class given is in vitro ADME. The following applies: 20% fecal homogenate (supernatant), pH 6.8, 20% cynomolgus monkey fecal homogenate, anaerobic, 37° C., read-out: t½: Monkey Feces anaerobic (converted). The method, then: (§1) Centrifuged the homogenate at 2800×g for 15 min. The supernatant is taken out and used for incubations. […] The final test compound concentration was 20 μM.

The nature of data set [4]: Stability in simulated intestinal fluid (SIF). The class given is in vitro ADME. The following applies: simulated intestinal fluid with pancreatin, pH 6.8, 37° C., matrix is 100 fold dilution of standard SIF concentration; for SIF t½: 20 μM; for half-life at 20 μM: read-out: SIF t½ (converted).
Procedure: SIF was prepared by adding 6.8 g of monobasic potassium phosphate and 10.0 g of pancreatin to 1.0 L of water. After dissolution, the pH was adjusted to 6.8 using NaOH. DMSO stocks (2 mM) were first prepared for the test compounds. Aliquots of the DMSO solutions were dosed into 6 individual tubes, each containing 0.5 mL of SIF, which is pre-warmed to 37° C. The final test compound concentration was 20 μM. The vials were kept in a benchtop Thermomixer® for the duration of the experiment. At each timepoint (0, 5, 10, 20, 40, 60, or 360 minutes or 24 hours), 1.0 mL of acetonitrile containing 1% formic acid was added to one vial to terminate the reaction. Samples were stored at 4° C. until the end of the experiment. After the final timepoint is sampled, the tubes were mixed and then centrifuged at 3,000 rpm for 10 minutes. Aliquots of the supernatant were removed, diluted 1:1 into distilled water containing internal standard, and analyzed by LCMS/MS. Percent remaining at each timepoint was calculated based on the peak area response ratio of test to compound to internal standard. Time 0 was set to 100%, and all later timepoints were calculated relative to time 0. Half-lives were calculated by fitting to a first-order exponential decay equation using Graphpad.
Data set [5] is described as follows: Stability in human fecal homogenate. The class given is in vitro ADME. To be noted: 20% fecal homogenate (supernatant), pH 6.8, 20% human fecal homogenate, anaerobic, 37° C., read-out: t½: Human Feces anaerobic (converted). The method, then: as §1
A further data set in a line: Stability in rat plasma. To be noted: both sexes, SD rat plasma, EDTA, 37° C., read-out: t½: Rat Plasma EDTA (converted). The class given is in vitro ADME.
In data set [6] the test system is Natural killer (NK) cells. Put plainly: NK cell based assay (IL-23-induced IFNγ). The following applies: primary human NK cells, IL-23 plus IL-18 10 ng/mL, IFNγ in supernatant after 20 to 24 hours. The method, then: Natural killer (NK) cells, purified from human peripheral blood of healthy donors by negative selection (Miltenyi Biotech, Cat #130-092-657), were cultured in complete media (RPMI 1640 containing 10% FBS, L-glutamine and penicillin-streptomycin) in the presence of IL-2 (RnD, Cat #202-IL-010/CF) at 25 ng/mL. After 7 days, cells were centrifuged, and resuspended in complete media at 1E6 cells/mL. […] After 20 to 24 hours, IFNγ in the supernatant was quantified using Quantikine ELISA (RnD, Cat #DIF50).

Numbered stars: 1 amine (or outer) side, 2 acyl side, 3 side chain; on linkers, the order of the positions; unused ones are H or OH. Bridge positions count the residues as written; N and C are the ends. Square brackets hold non-standard residues; d marks the D form. Peptide text beside a SMILES is read from it. Trp(7-Me) = Cc1cccc2c(C[C@H](N)C(=O)O)c[nH]c12; Abu(4-yl) = O=C([C@H](CC[*:3])N[*:1])[*:2]; 2Nal = N[C@@H](Cc1ccc2ccccc2c1)C(=O)O; AEF = NCCOc1ccc(C[C@H](N)C(=O)O)cc1; Cit = NC(=O)NCCC[C@H](N)C(=O)O; Pen = CC(C)(S)[C@H](N)C(=O)O; αMeK = C[C@](N)(CCCCN)C(=O)O; Aib = CC(C)(N)C(=O)O

Sequence of IL-23R-expressing DB cells (Q5VWK5 24-629 limits assumed): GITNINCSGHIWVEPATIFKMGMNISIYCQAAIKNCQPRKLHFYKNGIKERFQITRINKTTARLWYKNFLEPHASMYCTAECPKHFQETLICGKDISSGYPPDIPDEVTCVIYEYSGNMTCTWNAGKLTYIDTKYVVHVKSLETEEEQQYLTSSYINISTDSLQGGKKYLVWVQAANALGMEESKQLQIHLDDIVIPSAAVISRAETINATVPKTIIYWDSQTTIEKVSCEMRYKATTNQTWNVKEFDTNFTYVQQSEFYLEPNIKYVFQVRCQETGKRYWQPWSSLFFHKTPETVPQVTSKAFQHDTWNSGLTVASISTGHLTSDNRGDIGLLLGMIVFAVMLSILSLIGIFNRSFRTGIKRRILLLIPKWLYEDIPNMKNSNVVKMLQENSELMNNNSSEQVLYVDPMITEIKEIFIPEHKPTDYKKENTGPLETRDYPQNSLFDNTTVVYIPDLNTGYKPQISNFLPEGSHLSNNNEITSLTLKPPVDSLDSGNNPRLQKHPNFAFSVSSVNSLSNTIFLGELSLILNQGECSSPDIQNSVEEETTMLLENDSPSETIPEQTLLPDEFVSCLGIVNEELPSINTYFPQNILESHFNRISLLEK

Take `CC(=O)NCCCC[C@H](NC(=O)[C@](C)(CCCCN)NC(=O)[C@H](Cc1ccc2ccccc2c1)NC(=O)[C@H](Cc1ccc(OCCN)cc1)NC(=O)[C@H]1NC(=O)[C@H](CCCNC(N)=O)NC(=O)[C@H](Cc2c[nH]c3c(C)cccc23)NC(=O)[C@H]([C@@H](C)O)NC(=O)[C@H](CC(N)=O)NC(=O)[C@@H](NC(C)=O)C(C)(C)SSC1(C)C)C(=O)N[C@@H](CC(N)=O)C(=O)NC(C)(C)C(N)=O` [compound 264] (Ac-[Pen]NT[Trp(7-Me)][Cit][Pen][AEF][2Nal][αMeK]K(Ac)N[Aib]-NH2; disulfide 1-6): the “SGF t½” value in data set [1] is 24 h.
Take `CC(=O)NCCCC[C@H](NC(=O)[C@](C)(CCCCN)NC(=O)[C@H](Cc1ccc2ccccc2c1)NC(=O)[C@H](Cc1ccc(OCCN)cc1)NC(=O)[C@H]1NC(=O)[C@H](CCCCNC(=O)C2CCCCC2)NC(=O)[C@H](Cc2c[nH]c3c(C)cccc23)NC(=O)[C@H]([C@@H](C)O)NC(=O)[C@H](CC(N)=O)NC(=O)[C@@H](NC(C)=O)C(C)(C)SSC1(C)C)C(=O)N[C@@H](CC(N)=O)C(=O)N[C@H](CC(C)C)C(N)=O` [compound 316]: the IC50 in data set [2] was found to be 5.6 nM. Moreover, the half-life at 20 μM (in data set [3]; in data set [5]; in the data set “Stability in rat plasma”) was more than 24 h each time. The “SIF t½” value in data set [4] was 24 h.
Take `CC(=O)NCCCC[C@H](NC(=O)[C@](C)(CCCCN)NC(=O)[C@H](Cc1ccc2ccccc2c1)NC(=O)[C@H](Cc1ccc(OCCN)cc1)NC(=O)[C@H]1NC(=O)[C@H](CCCCNC(=O)C(C)(C)N)NC(=O)[C@H](Cc2c[nH]c3c(C)cccc23)NC(=O)[C@H]([C@@H](C)O)NC(=O)[C@H](CC(N)=O)NC(=O)[C@@H](NC(C)=O)C(C)(C)SSC1(C)C)C(=O)N[C@@H](CC(N)=O)C(=O)N[C@H](CC(C)C)C(N)=O` [compound 322]: the IC50 in data set [2] was determined as 0.648 nM. In addition, the half-life at 20 μM (in data set [3] (cynomolgus monkey); in data set [5]; in “Stability in rat plasma”) was more than 24 h each time. In addition, the “SIF t½” value in data set [4] was 24 h.
As to `CC(=O)NCCCC[C@@H]1NC(=O)[C@H](Cc2c[nH]c3c(C)cccc23)NC(=O)[C@H]([C@@H](C)O)NC(=O)[C@H](CCC(N)=O)NC(=O)[C@@H](NC(=O)[C@@H](CCCNC(=N)N)NC(C)=O)CCSC[C@@H](C(=O)N[C@@H](Cc2ccc(OCCN)cc2)C(=O)N[C@@H](Cc2ccc3ccccc3c2)C(=O)N[C@@](C)(CCCCN)C(=O)N[C@@H](CCCCNC(C)=O)C(=O)N[C@@H](CC(N)=O)C(=O)N[C@H](CC(C)C)C(N)=O)NC1=O` [compound 325] (Ac-[dR][Abu(4-yl)]QT[Trp(7-Me)]K(Ac)C[AEF][2Nal][αMeK]K(Ac)N[dL]-NH2; thioether 2-7), the IC50 in data set [2] worked out at 4.45 nM. The half-life at 20 μM in data set [3] (cynomolgus monkey) is 22 h; in data set [4] it was 14 h; in data set [5], more than 24 h; in the data set “Stability in rat plasma”, more than 24 h.
For the compound `CC(=O)NCCCC[C@H](NC(=O)[C@](C)(CCCCN)NC(=O)[C@H](Cc1ccc2ccccc2c1)NC(=O)[C@H](Cc1ccc(OCCN)cc1)NC(=O)[C@H]1NC(=O)[C@H](CCCNC(N)=O)NC(=O)[C@H](Cc2c[nH]c3c(C)cccc23)NC(=O)[C@H]([C@@H](C)O)NC(=O)[C@H](CC(N)=O)NC(=O)[C@@H](NC(C)=O)C(C)(C)SSC1(C)C)C(=O)N[C@@H](CC(N)=O)C(=O)NC(C)(C)C(=O)N[C@H](CCCNC(=N)N)C(N)=O` [compound 345] (Ac-[Pen]NT[Trp(7-Me)][Cit][Pen][AEF][2Nal][αMeK]K(Ac)N[Aib][dR]-NH2; disulfide 1-6), in data set [2], the IC50 was found to be 0.639 nM. In addition, the half-life at 20 μM is more than 24 h in data set [3], 12 h in data set [4], more than 24 h in data set [5] and more than 24 h in the data set “Stability in rat plasma”.
For `CC(=O)NCCCC[C@@H]1NC(=O)[C@H](Cc2c[nH]c3c(C)cccc23)NC(=O)[C@H]([C@@H](C)O)NC(=O)[C@H](CC(N)=O)NC(=O)[C@@H](NC(C)=O)C(C)(C)SSC(C)(C)[C@@H](C(=O)N[C@@H](Cc2ccc(OCCN)cc2)C(=O)N[C@@H](Cc2ccc3ccccc3c2)C(=O)N[C@@](C)(CCCCN)C(=O)N[C@@H](CCCCNC(=O)C2CCCCC2)C(=O)N[C@@H](CC(N)=O)C(=O)N[C@H](CC(C)C)C(N)=O)NC1=O` [compound 357], the half-life at 20 μM in data set [3] was more than 24 h; in data set [4], 14 h; in data set [5], more than 24 h; in “Stability in rat plasma” it was more than 24 h. In data set [6], the IC50 was 3.8 nM.
As to `CCCCCCCC(=O)NCCCC[C@H](NC(=O)[C@](C)(CCCCN)NC(=O)[C@H](Cc1ccc2ccccc2c1)NC(=O)[C@H](Cc1ccc(OCCN)cc1)NC(=O)[C@H]1NC(=O)[C@H](CCCCNC(C)=O)NC(=O)[C@H](Cc2c[nH]c3c(C)cccc23)NC(=O)[C@H]([C@@H](C)O)NC(=O)[C@H](CC(N)=O)NC(=O)[C@@H](NC(C)=O)C(C)(C)SSC1(C)C)C(=O)N[C@@H](CC(N)=O)C(=O)N[C@H](CC(C)C)C(N)=O` [compound 358], in data set [2], the IC50 worked out at 3.03 nM. The half-life at 20 μM (in data set [3]; in data set [5]; in the data set “Stability in rat plasma”) was more than 24 h in each case. Also, the “SIF t½” value in data set [4] is 24 h.
